Reference: patent US4179516A, “Ethers of 3,4-dihydro-1-benzoxepin-5-one oxime to treat intestinal disorders” (Albert Rolland, S.A., priority 1973, dated 1979)
Read-outs that look alike come from different tables or passages of the source.

Columns and labels:
[1] = according to the authors of Collection Czechoslov. Chem. Common 37 868-886 (1972); cited from earlier work
rat duodenum = assay: Relaxant activity in vitro on isolated organ: decontraction (rat duodenum); conditions: Tyrode solution, 37° C.
Method: (§1) The tests were carried out on acid addition salts of the amines of the general formula.
(§2) For tests on the isolated organ: An organ fragment of rat duodenum or guinea pig ileum is kept alive in 50 ml of oxygenated and thermostatically controlled (37° C.) Tyrode solution. The activity of the compounds is tested on the spontaneous movements of the organ and the contractions produced by the addition of solution of barium chloride or acetyl choline to the bath. The movements were recorded on a DMP 4A Roucaire physiograph.

guinea pig ileum = assay: Relaxant activity in vitro on isolated organ: anti-acetylcholine (guinea pig ileum); conditions: Tyrode solution, 37° C., acetyl choline
Method: as §1, §2

[2] = system: smooth intestinal muscle fibre (terminal part of the duodenum); assay: In vivo relaxant activity on smooth intestinal muscle in the anaesthetised (chloralosed) dog, balloon in terminal duodenum; conditions: 2 mg/kg intravenously, compared with atropine
Method: as §1
For the in vivo tests: a balloon is introduced into the chloralosed animal at the level of the terminal part of the duodenum and the intestinal movements are recorded on a Beckman polygraph with the acid of Statham PM 97 gauge.

in vivo = conditions: mouse, male Swiss C.D. mice, acid addition salts
Method: as §1
The acute toxicity was determined in male Swiss C.D. mice weighing an average of 20 grammes, after oral administration (P.O) and intravenous administration (I.V.).

[3] = intravenous, read-out: Toxicity in mice LD50 I.V
[4] = oral, read-out: Toxicity in mice LD50 P.O.

Row | Structure (SMILES) | spasmolytic action [1] | Minimum active dose concentration, Decontraction (rat duodenum) (rat duodenum) | Minimum active dose concentration, Anti-Acetyl-Cholire (guinea pig ileum) (guinea pig ileum) | effect as regards the reduction in muscle tone and intestinal peristalsis [2] | LD50 (in vivo; [3]) | LD50 (in vivo; [4])
1 | CN(C)CCON=C1CCCOc2cc(Cl)ccc21 | weak spasmolytic action | – | – | – | – | –
2 | CN1[C@@H]2CC[C@H]1C[C@@H](OC(=O)C(CO)c1ccccc1)C2 (stereo partly shown) [ATROPINE, reference compound] | – | inactive | 0.006 µg/mL | – | – | –
3 | CN(C)CCON=C1CCCOc2ccc(Cl)cc21 [Example 1, 7-chloro-3,4-dihydro-1-benzoxepin-O-(dimethylaminoethyl)-5-one oxime] | – | 0.06 µg/mL | 5.5 µg/mL | comparable with or even superior to that of atropine | 32 mg/kg | 150 mg/kg
4 | CCN(CC)CCO/N=C1/CCCOc2ccc(Cl)cc21 [Example 2, 7-chloro-3,4-dihydro-1-benzoxepin-O-(diethylaminoethyl)-5-one oxime: isomer with the cis configuration in relation to the benzene nucleus] | – | 0.1 µg/mL | 1 µg/mL | comparable with or even superior to that of atropine | 37 mg/kg | 420 mg/kg
5 | Clc1ccc2c(c1)C(=NOCCN1CCOCC1)CCCO2 [Example 6, 7-chloro-3,4-dihydro-1-benzoxepin-O-(morpholinoethyl)-5-one oxime] | – | 0.15 µg/mL | 5.5 µg/mL | – | 120 mg/kg | > 1000 mg/kg
6 | Clc1ccc2c(c1)C(=NOCCN1CCCC1)CCCO2 [Example 7, 7-chloro-3,4-dihydro-1-benzoxepin-O-(1-pyrrolidinyl-ethyl)-5-one oxime] | – | 1.5 µg/mL | 1.3 µg/mL | comparable with or even superior to that of atropine | 35 mg/kg | 450 mg/kg
7 | CN(C)CCCON=C1CCCOc2ccc(Cl)cc21 [Example 8, 7-chloro-3,4-dihydro-1-benzoxepin-O-(dimethylaminopropyl)-5-one oxime] | – | 0.12 µg/mL | 3.5 µg/mL | comparable with or even superior to that of atropine | 60 mg/kg | 500 mg/kg
8 | COc1ccc2c(c1)C(=NOCCN(C)C)CCCO2 [Example 9, 7-methoxy-3,4-dihydro-1-benzoxepin-O-(dimethylaminoethyl)-5-one oxime] | – | 0.12 µg/mL | 1.5 µg/mL | – | 35 mg/kg | 500 mg/kg
9 | CCN(CC)CCON=C1CCCOc2ccc(OC)cc21 [Example 10, 7-methoxy-3,4-dihydro-1-benzoxepin-O-(diethylaminoethyl)-5-one oxime] | – | 0.5 µg/mL | 0.5 µg/mL | – | 45 mg/kg | 450 mg/kg
10 | COc1ccc2c(c1)C(=NOCCCN(C)C)CCCO2 [Example 11] | – | 0.3 µg/mL | 2.0 µg/mL | – | – | > 1000 mg/kg
11 | CCN(CC)CCON=C1CCCOc2ccc(Br)cc21 [Example 12, 7-bromo-3,4-dihydro-1-benzoxepin-O-(diethylaminoethyl)-5-one oxime] | – | 0.1 µg/mL | 1 µg/mL | comparable with or even superior to that of atropine | 40 mg/kg | 250 mg/kg
